Results on two compounds are retold here after US20260206761A1, “HETEROARYL-TRIAZOLE COMPOUNDS AS PESTICIDES” (Bayer Aktiengesellschaft, priority 2019, published 2026).

What all share (format): in vivo
For experiment [1], the system named is adult engorged female ticks (Rhipicephalus microplus). Put plainly: Rhipicephalus (Boophilus) microplus injection test. The settings on record: 168 h, egg deposition after 7 days, read-out: activity (efficacy: infertile eggs); for pest or weed control at 4 pg: application rate 4 pg/animal. In outline: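 Compound in DMSO (10 mg per 0.5 mL, then diluted with DMSO to test concentration); 1 μL injected into the abdomen of each of five engorged females, then held in a climate chamber. Fertile egg deposition checked at 7 days; efficacy 100% = all eggs infertile, 0% = all fertile.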

The test system of experiment [2] is adult cat fleas (Ctenocephalides felis). The experiment in a line: Ctenocephalides felis in-vitro contact test, adult cat flea. The settings on record: application rate 5 μg/cm^2 (=500 g/ha), after 48 hours, read-out: activity (efficacy: fleas dead or moribund). In outline:
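Efficacy, as % of fleas dead or moribund, was read 48 h after 5-10 adult cat fleas were confined in glass tubes whose walls carried dried compound film (900 ppm, […]). Fleas failing to escape upward from a 45-50° C plate within 5 min counted as dead or moribund.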

The subject of experiment [3] is adult unfed cat fleas (Ctenocephalides felis). The experiment in a line: Ctenocephalides felis oral test. To be noted: 48 h, read-out: activity (mortality). In short, it runs like this: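 About 20 adult unfed fleas fed through parafilm on cattle blood containing compound (DMSO stock diluted in blood), blood held at 37 °C and fleas at room temperature. Mortality (%) scored after 2 days.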

The test system of experiment [4] is larvae of the banded cucumber beetle (Diabrotica balteata). Put plainly: Diabrotica balteata spray test. To be noted: 168 h, after 7 days, read-out: activity (efficacy: seedlings grown). In short, it runs like this:
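Read-out is % efficacy at day 7, 0% meaning no seedling growth and 100% growth equal to uninfested untreated controls. Test solutions (acetone/DMF concentrate diluted with water carrying 1000 ppm emulsifier) were sprayed onto 1-day-germinated wheat seeds, 5 per well, before infestation with 10-20 larvae.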

The test system of experiment [5] is green peach aphid (Myzus persicae). Put plainly: Myzus persicae oral test. To be noted: 120 h, application rate 4 ppm, after 5 days. In outline: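 Readout: % mortality at day 5, where 100% = all aphids dead and 0% = none dead. Feeding via parafilm membrane over compound in IPL41 medium (33%+15% sugar); mixed-age population. Stock in acetone (1:100 w/w), water-diluted.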

Experiment [6] relates to larvae of the southern green stink bug (Nezara viridula). The experiment in a line: Nezara viridula spray test. The settings on record: 96 h, application rate 100 g/ha, after 4 days. In short, it runs like this:
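Larva-infested barley (Hordeum vulgare) plants received a spray of test solution prepared from an acetone/DMF concentrate diluted in emulsifier-containing water (1000 ppm). Percent kill read 4 days later; 0% means no stink bugs dead.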

Experiment [7] has as its system Aedes aegypti strain MONHEIM. Put plainly: Aedes aegypti test (AEDSAE surface treatment & contact assay). To be noted: 24 hours after contact, read-out: efficacy (mortality); for mortality at 4 mg/m2: surface concentration 4 mg/m^2, exposure 30 minutes; for mortality at 20 mg/m2: surface concentration 20 mg/m^2, exposure 30 minutes. In outline: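 Percent mortality was read 24 h after adult MONHEIM mosquitoes were held for 30 min on a tile treated with compound. Compound applied from acetone solution (2 mg/ml) containing 2000 ppm rapeseed oil methyl ester, after evaporation.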

Experiment [8] deals with Anopheles funestus strain FUMOZ-R. Put plainly: Anopheles funestus test (ANPHFU surface treatment & contact assay). To be noted: 24 hours after contact, read-out: efficacy (mortality); for mortality at 4 mg/m2: surface concentration 4 mg/m^2, exposure 30 minutes; for mortality at 20 mg/m2: surface concentration 20 mg/m^2, exposure 30 minutes. On the procedure:
Anopheles funestus Test (ANPHFU Surface Treatment & Contact Assay)
(§1) Solvent: Aceton+2000 ppm rapeseed oil methyl ester (RME)
In order to produce a sufficient, active ingredient containing solution it is necessary to solve the test compound in the solvent-mix (acetone at 2 mg/ml/RME 2000 ppm). This solution is pipetted onto a glazed tile and after evaporation of the acetone, adult mosquitoes of the species Anopheles funestus strain FUMOZ-R (Hunt et al., Med. Vet. Entomol. 2005 September; 19(3): 271-275) are placed onto the dried surface. The exposure time is 30 minutes. Mortality in percent (%) is determined 24 hours after contact of the insects to the treated surface. 100% mortality means that all tested insects are dead, whereas 0% means that no insect died.

Experiment [9] deals with Blattella germanica strain PAULINIA
The experiment in a line: whole plant or invertebrate. To be noted: read-out: efficacy (mortality). On the procedure: Blattella germanica Test (BLTTGE Surface Treatment & Contact Assay)
as §1
In order to produce a sufficient, active ingredient containing solution it is necessary to solve the test compound in the solvent-mix (acetone at 2 mg/ml/RME 2000 ppm). This solution is pipetted onto a glazed tile and after evaporation of the acetone, adult animals of the species Blattella germanica strain PAULINIA are placed onto the dried surface. The exposure time is 30 minutes.
Mortality in percent (%) is determined 24 hours after contact of the insects to the treated surface. 100% mortality means that all tested insects are dead, whereas 0% means that no insect died.

In experiment [10] the test system is adult brown dog ticks (Rhipicephalus sanguineus). Put plainly: Rhipicephalus sanguineus in-vitro contact test, adult brown dog ticks. To be noted: after 48 hours, read-out: activity (efficacy: ticks dead or moribund). In short, it runs like this:
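Glass tubes are coated with compound dissolved in acetone, a 900 ppm solution yielding 5 μg/cm^2 on the inner surface. Adult ticks (5-10 per tube) are kept on the dry film at room temperature for 48 h, then those unable to escape 45-50° C heat are counted as dead or moribund.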

For experiment [11], the system named is green peach aphid (Myzus persicae). Put plainly: Myzus persicae spray test. The settings on record: 120 h, application rate 500 g/ha, after 5 days. In outline: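 Chinese cabbage leaf disks carrying all instars of M. persicae sprayed with compound in acetone/DMF, diluted in water with 1000 ppm alkylarylpolyglycol ether emulsifier. Percent mortality scored after 5 days (100% = all aphids killed).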

In experiment [12] the test system is two spotted spidermite (Tetranychus urticae). Put plainly: Tetranychus urticae spray test OP-resistant. To be noted: 144 h, application rate 500 g/ha, after 6 days. On the procedure:
Tetranychus urticae—Spray Test OP-Resistant
Solvent: 78.0 parts by weight acetone • 1.5 parts by weight dimethylformamide
Emulsifier: alkylarylpolyglycol ether
To produce a suitable preparation of active compound, 1 part by weight of active compound is mixed with the stated amount of solvents and is diluted with water, containing an emulsifier concentration of 1000 ppm, to the desired concentration. Further test concentrations are prepared by dilution with emulsifier containing water.
French bean (Phaseolus vulgaris) leaf disks infected with all instars of the two spotted spidermite (Tetranychus urticae), are sprayed with a preparation of the active ingredient of the desired concentration.
After 6 days mortality in % is determined. 100% means all spider mites have been killed and 0% means none of the spider mites have been killed.

The test system of experiment [13] is Culex quinquefasciatus strain P00. The experiment in a line: Culex quinquefasciatus test (CULXFA surface treatment & contact assay). To be noted: 24 hours after contact, read-out: efficacy (mortality). On the procedure:
Culex quinquefasciatus Test (CULXFA Surface Treatment & Contact Assay)
as §1
In order to produce a sufficient, active ingredient containing solution it is necessary to solve the test compound in the solvent-mix (acetone at 2 mg/ml/RME 2 000 ppm). This solution is pipetted onto a glazed tile and after evaporation of the acetone, adult mosquitoes of the species Culex quinquefasciatus strain P00 are placed onto the dried surface. The exposure time is 30 minutes. Mortality in percent (%) is determined 24 hours after contact of the insects to the treated surface. 100% mortality means that all tested insects are dead, whereas 0% means that no insect died.

Molecules are shown by their SMILES.

Broadly, the mortality is the percentage killed. In the case of `CC(NC(=O)c1cc(Cl)cc(S(C)(=O)=O)c1)c1nc(Br)nn1-c1ncccn1` (stereo not shown) [I-34], in experiment [1], the pest or weed control at 4 pg was found to be 100%. Also, the pest or weed control at 5 µg/cm2 in experiment [2] turned out to be 90%. In addition, in experiment [3], the mortality at 100 ppm amounted to 100%. For the same compound, the pest or weed control at 100 g/ha in experiment [4] (application rate 100 g/ha (=32 pg/well)) was found to be 100%. The same compound displayed a mortality at 4 ppm in experiment [5] of 100%. Further, the mortality at 100 g/ha in experiment [6] stood at 100%. Further, the mortality at 4 mg/m2 in [7] and in experiment [8] was 80 to 100% each time. The mortality at 20 mg/m2 in [7], in [8] and in experiment [9] was 80 to 100% in each case.

For the compound `Cc1nc([C@H](C)NC(=O)c2csc(Cl)c2)n(-c2ncccn2)n1` [II-24], the pest or weed control at 4 pg in experiment [1] worked out at 100%. Moreover, the pest or weed control at 0.02 mg in experiment [1] (application rate 20 μg/animal) came out at 100%. Also, the pest or weed control at 5 µg/cm2 in experiment [2] was 100%. For the same compound, in experiment [10] (application rate 1 pg/cm^2 (=100 g/ha)), the pest or weed control at 100 g/ha is 100%. Moreover, in experiment [10] (application rate 5 μg/cm^2 (=500 g/ha)), the pest or weed control at 5 µg/cm2, 500 g/ha turned out to be 100%. In addition, the pest or weed control at 500 g/ha in experiment [4] (application rate 500 g/ha (=160 pg/well)) came to 80%. For the same compound, the mortality at 500 g/ha in experiment [11] and in experiment [12] was 90% each time. The mortality at 4 mg/m2 in experiment [7] was 80 to 100%; in [13] (surface concentration 4 mg/m^2, exposure 30 minutes), 80 to 100%; in experiment [8], 80 to 100%. Besides, the mortality at 20 mg/m2 in experiment [7] lay within 80 to 100%; in [13] (surface concentration 20 mg/m^2, exposure 30 minutes), 80 to 100%; in [8] it was 80 to 100%.
